# In patent US9931347B2, “Pharmaceutical compound” (IOmet Pharma Ltd., priority 2013, dated 2018):
# How the values were obtained:
# [1] = target: T1, TDO (A172 human glioblastoma cells) (Homo sapiens, UniProt P48775); assay: A172 Kynurenine cell based assay; settings: 500 μM L-tryptophan, 48 hours, kynurenine by Erhlich's reagent
# T1 construct: This assay utilised cancer cells which expressed either TDO or IDO; endogenous in cells; host or cells: A172 human glioblastoma cells
# Method in brief: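 Kynurenine released into the supernatant was quantified by absorbance at 490 nm after 5 min with Erhlich's reagent. A172 cells were seeded at 30,000/well and exposed to test compound for 48 hours at 37° C. in phenol red-free RPMI containing 500 μM L-tryptophan, 10% FCS and 2 mM L-glutamine.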
# [2] = target: T2, IDO (SKOV3 human ovarian adenocarcinoma cells, IFN-γ induced) (Homo sapiens, UniProt P14902); assay: SKOV3 Kynurenine cell based assay; settings: IDO induced by 500 ng/ml IFN-γ, 500 μM L-tryptophan, 48 hours
# T2 construct: IDO expression was induced in the SKOV3 cells by the addition of 500 ng/ml IFN-γ; endogenous in cells; host or cells: SKOV3 human ovarian adenocarcinoma cells, induced with IFN-γ
# Method in brief: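 Kynurenine in the supernatant, detected by Ehrlich's reagent, served as read-out after 48 h at 37° C with or without test compound. SKOV3 cells (40,000/well) were grown in phenol red-free RPMI, 10% FCS, 2 mM L-glutamine, 500 μM L-tryptophan, with 500 ng/ml IFN-γ to induce IDO.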
# Recombinant human TDO = Recombinant human TDO (Homo sapiens, UniProt P48775); assay: hTDO biochemical coupled assay; settings: 330 μM L-tryptophan, coupled with kynurenine formamidase
# Description: (§1) Exemplary compounds of the invention were prepared, and tested to determine their effect as TDO and/or IDO inhibitors. Two different assays were employed: 1. a cell-based assay for detecting the effect of test compounds on kynurenine production in two different cancer cell types. This assay utilised cancer cells which expressed either TDO or IDO and as such was used as a means of testing compound activity at these two enzymes in a cell-based context. 2. a TDO and IDO biochemical coupled assay which utilised recombinantly produced and purified TDO and IDO enzymes in combination with the enzyme formamidase. This coupled enzyme system allowed conversion of N-formylkynurenine produced by TDO or IDO activity to kynurenine which was then quantified by fluorescence following addition of Erhlich's Reagent The protocols for these are set out below.
# Recombinant human IDO or TDO was incubated in 50 mM KPO4 (pH 7.0), 0.5 mM EGTA, 0.5 mM EDTA, 0.05% Triton™ X100, 20 mM ascorbate, 10 μM methylene blue, 500 U/ml catalase, 50 μg/ml KynB (kynurenine formamidase). TDO assays were carried out in the presence of 330 μM L-tryptophan, while IDO assays had the addition of 45 μM L-tryptophan. After incubation for 17 minutes at room temperature the reactions were stopped by the addition of Erhlich's reagent and incubated at room temperature for 5 minutes before the fluorescence was read (Ex475, Em530).
# Recombinant human IDO = Recombinant human IDO (Homo sapiens, UniProt P14902); assay: hIDO biochemical coupled assay; settings: 45 μM L-tryptophan, coupled with kynurenine formamidase
# Description: as §1
# Recombinant human IDO or TDO was incubated in 50 mM KPO4 (pH 7.0), 0.5 mM EGTA, 0.5 mM EDTA, 0.05% Triton™ X100, 20 mM ascorbate, 10 μM methylene blue, 500 U/ml catalase, 50 μg/ml KynB (kynurenine formamidase).
# T1 sequence (P48775 whole entry): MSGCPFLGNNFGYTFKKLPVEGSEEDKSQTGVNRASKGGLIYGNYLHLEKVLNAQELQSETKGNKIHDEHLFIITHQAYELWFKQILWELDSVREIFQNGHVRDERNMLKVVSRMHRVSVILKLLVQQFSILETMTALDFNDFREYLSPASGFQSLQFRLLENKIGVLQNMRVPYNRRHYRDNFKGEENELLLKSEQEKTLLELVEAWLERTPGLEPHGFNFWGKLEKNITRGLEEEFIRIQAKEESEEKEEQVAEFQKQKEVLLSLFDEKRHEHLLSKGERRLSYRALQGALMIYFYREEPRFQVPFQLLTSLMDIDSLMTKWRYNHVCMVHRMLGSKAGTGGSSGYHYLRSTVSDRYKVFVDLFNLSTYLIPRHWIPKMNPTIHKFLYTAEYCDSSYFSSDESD
# Sequence of Recombinant human TDO (P48775 whole entry): as above
# Sequence of Recombinant human IDO (P14902 whole entry): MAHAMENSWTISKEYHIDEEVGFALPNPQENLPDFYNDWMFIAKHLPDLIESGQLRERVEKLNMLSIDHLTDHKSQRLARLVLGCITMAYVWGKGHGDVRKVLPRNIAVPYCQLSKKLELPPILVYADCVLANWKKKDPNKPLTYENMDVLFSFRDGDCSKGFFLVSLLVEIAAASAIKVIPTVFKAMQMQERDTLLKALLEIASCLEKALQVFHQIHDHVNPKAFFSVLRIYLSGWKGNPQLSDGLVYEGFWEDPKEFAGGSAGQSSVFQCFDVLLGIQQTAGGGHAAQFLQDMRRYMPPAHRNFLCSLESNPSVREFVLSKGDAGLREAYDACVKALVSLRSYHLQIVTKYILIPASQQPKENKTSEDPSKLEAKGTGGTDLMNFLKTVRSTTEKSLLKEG
# T2 sequence (P14902 whole entry): as above
A172 Kynurenine cell based assay pIC50 [1],SKOV3 Kynurenine cell based assay pIC50 [2],hTDO biochemical assay pIC50 (Recombinant human TDO),hIDO biocehmical assay pIC50 (Recombinant human IDO),SMILES
++ (++ = pIC50 5.00-5.99),–,+ (+ = pIC50 4.00-4.99),–,O=C(C(F)F)N1CCC(c2c[nH]c3cc(F)ccc23)CC1 [Compound 260]
++ (++ = pIC50 5.00-5.99),++ (++ = pIC50 5.00-5.99),+ (+ = pIC50 4.00-4.99),–,CCC(=O)N1CCC(c2c[nH]c3cc(F)ccc23)CC1 [Compound 263]
++ (++ = pIC50 5.00-5.99),+ (+ = pIC50 4.00-4.99),+ (+ = pIC50 4.00-4.99),–,O=C(C1CC1)N1CCC(c2c[nH]c3cc(F)ccc23)CC1 [Compound 265]
++ (++ = pIC50 5.00-5.99),+ (+ = pIC50 4.00-4.99),+ (+ = pIC50 4.00-4.99),–,O=C(CO)N1CCC(c2c[nH]c3cc(F)ccc23)CC1 [Compound 269]
+ (+ = pIC50 4.00-4.99),++ (++ = pIC50 5.00-5.99),–,+ (+ = pIC50 4.00-4.99),Cn1cccc1C(=O)N1CCC(c2c[nH]c3cc(F)ccc23)CC1 [Compound 278]
++ (++ = pIC50 5.00-5.99),+ (+ = pIC50 4.00-4.99),+ (+ = pIC50 4.00-4.99),–,COCCS(=O)(=O)N1CCC(c2c[nH]c3cc(F)ccc23)CC1 [Compound 285]
++ (++ = pIC50 5.00-5.99),–,+ (+ = pIC50 4.00-4.99),–,Cn1cc(S(=O)(=O)N2CCC(c3c[nH]c4cc(F)ccc34)CC2)cn1 [Compound 286]
++ (++ = pIC50 5.00-5.99),+ (+ = pIC50 4.00-4.99),+ (+ = pIC50 4.00-4.99),–,O=S(=O)(C1CC1)N1CCC(c2c[nH]c3cc(F)ccc23)CC1 [Compound 288]
++ (++ = pIC50 5.00-5.99),+ (+ = pIC50 4.00-4.99),+ (+ = pIC50 4.00-4.99),–,CCCS(=O)(=O)N1CCC(c2c[nH]c3cc(F)ccc23)CC1 [Compound 292]
++ (++ = pIC50 5.00-5.99),–,+ (+ = pIC50 4.00-4.99),–,CNS(=O)(=O)N1CCN(c2c[nH]c3ccccc23)CC1 [Compound 295]
++ (++ = pIC50 5.00-5.99),–,+ (+ = pIC50 4.00-4.99),–,O=S1(=O)CCC2CN(c3c[nH]c4ccccc34)CCN21 (stereo not shown) [Compound 304]
–,+ (+ = pIC50 4.00-4.99),+ (+ = pIC50 4.00-4.99),–,CC(=O)N1CCCN(c2c[nH]c3ccccc23)CC1 [Compound 308]
++ (++ = pIC50 5.00-5.99),–,+ (+ = pIC50 4.00-4.99),–,NS(=O)(=O)N1CCN(c2c[nH]c3ccccc23)CC1 [Compound 311]
++ (++ = pIC50 5.00-5.99),–,+ (+ = pIC50 4.00-4.99),–,CNCC1CN(c2c[nH]c3ccccc23)CCN1S(C)(=O)=O (stereo not shown) [Compound 319]

# Second part, the compound before the results:
SMILES,A172 Kynurenine cell based assay pIC50 [1],SKOV3 Kynurenine cell based assay pIC50 [2],hTDO biochemical assay pIC50 (Recombinant human TDO),hIDO biocehmical assay pIC50 (Recombinant human IDO)
CC(=O)N1CCC(c2c[nH]c3ccccc23)CC1 [Compound 1],++ (++ = pIC50 5.00-5.99),+ (+ = pIC50 4.00-4.99),+− (+− = pIC50 <4.00),+− (+− = pIC50 <4.00)
CS(=O)(=O)N1CCC(c2c[nH]c3ccccc23)CC1 [Compound 3],++ (++ = pIC50 5.00-5.99),+− (+− = pIC50 <4.00),++ (++ = pIC50 5.00-5.99),+− (+− = pIC50 <4.00)
Cn1cnc(S(=O)(=O)N2CCC(c3c[nH]c4ccccc34)CC2)c1 [Compound 4],+ (+ = pIC50 4.00-4.99),+− (+− = pIC50 <4.00),+ (+ = pIC50 4.00-4.99),+− (+− = pIC50 <4.00)
CCCS(=O)(=O)N1CC=C(c2c[nH]c3cc(F)ccc23)CC1 [Compound 7],+++ (+++ = pIC50 ≥6.00),+ (+ = pIC50 4.00-4.99),++ (++ = pIC50 5.00-5.99),+− (+− = pIC50 <4.00)
Cc1noc(N2CCC(c3c[nH]c4cc(F)ccc34)CC2)n1 [Compound 183],++ (++ = pIC50 5.00-5.99),+ (+ = pIC50 4.00-4.99),–,+− (+− = pIC50 <4.00)
Cc1nc(N2CCC(c3c[nH]c4cc(F)ccc34)CC2)no1 [Compound 184],++ (++ = pIC50 5.00-5.99),+ (+ = pIC50 4.00-4.99),–,+− (+− = pIC50 <4.00)
CC1CN(c2c[nH]c3ccccc23)CCN1S(C)(=O)=O (stereo not shown) [Compound 186],++ (++ = pIC50 5.00-5.99),+− (+− = pIC50 <4.00),–,+− (+− = pIC50 <4.00)
CN1CCN(c2c[nH]c3ccccc23)CC1=O [Compound 189],+ (+ = pIC50 4.00-4.99),+− (+− = pIC50 <4.00),–,+− (+− = pIC50 <4.00)
COc1cccc2[nH]cc(C3=CCN(S(C)(=O)=O)CC3)c12 [Compound 197],–,–,+ (+ = pIC50 4.00-4.99),–
CC(=O)N1CC=C(c2c[nH]c3cnccc23)CC1 [Compound 198],–,–,+ (+ = pIC50 4.00-4.99),–
COc1ccc2[nH]cc(C3CCN(C(C)=O)CC3)c2c1 [Compound 199],–,–,+ (+ = pIC50 4.00-4.99),–
Cn1cc(C2=CCN(S(C)(=O)=O)CC2)c2ccccc21 [Compound 204],–,–,+ (+ = pIC50 4.00-4.99),–
CC(=O)N1CC=C(c2c[nH]c3cc(C)ccc23)CC1 [Compound 205],+ (+ = pIC50 4.00-4.99),–,+ (+ = pIC50 4.00-4.99),–
CS(=O)(=O)N1CC=C(c2c[nH]c3ccccc23)CC1 [Compound 209],++ (++ = pIC50 5.00-5.99),–,++ (++ = pIC50 5.00-5.99),–
CC(=O)N1CC=C(c2c[nH]c3ccccc23)CC1 [Compound 210],++ (++ = pIC50 5.00-5.99),–,++ (++ = pIC50 5.00-5.99),–
NS(=O)(=O)N1CCC(c2c[nH]c3ccccc23)CC1 [Compound 218],++ (++ = pIC50 5.00-5.99),–,+ (+ = pIC50 4.00-4.99),–
CS(=O)(=O)N1CC=C(c2c[nH]c3cc(Cl)c(F)cc23)CC1 [Compound 227],++ (++ = pIC50 5.00-5.99),–,+ (+ = pIC50 4.00-4.99),–
CS(=O)(=O)N1CCC(c2c[nH]c3cc(F)c(F)cc23)CC1 [Compound 236],++ (++ = pIC50 5.00-5.99),+ (+ = pIC50 4.00-4.99),+ (+ = pIC50 4.00-4.99),–
NS(=O)(=O)N1CCC(c2c[nH]c3cc(F)ccc23)CC1 [Compound 249],++ (++ = pIC50 5.00-5.99),–,+ (+ = pIC50 4.00-4.99),–
CN(C)S(=O)(=O)N1CC=C(c2c[nH]c3cc(F)ccc23)CC1 [Compound 251],+++ (+++ = pIC50 ≥6.00),+ (+ = pIC50 4.00-4.99),+ (+ = pIC50 4.00-4.99),–
CNS(=O)(=O)N1CC=C(c2c[nH]c3cc(F)ccc23)CC1 [Compound 256],++ (++ = pIC50 5.00-5.99),+ (+ = pIC50 4.00-4.99),+ (+ = pIC50 4.00-4.99),–
CNS(=O)(=O)N1CCC(c2c[nH]c3cc(F)ccc23)CC1 [Compound 257],++ (++ = pIC50 5.00-5.99),+ (+ = pIC50 4.00-4.99),+ (+ = pIC50 4.00-4.99),–
